Experimental data taken from ChEMBL document CHEMBL1201862, “PubChem BioAssay data set” (2004).
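How tested: cells in 96-well plates exposed to compound for 48 hours at five concentrations. GI50 is the concentration that inhibits growth by half.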 The source made the active and inactive calls. Cut-off read from the data, not from the text of the source: active = GI50 up to about 1.1 µM and inactive = higher.

Key:
Test in all cases: NCI tumour cell line growth inhibition, 48 h
[1] = tested on: OVCAR-8
[2] = tested on: M14
[3] = tested on: HOP-62
[4] = tested on: TK-10
[5] = tested on: HCT-15
[6] = tested on: UO-31
[7] = tested on: SNB-19
[8] = tested on: RXF 393
[9] = tested on: NCI-H460
[10] = tested on: OVCAR-3
[11] = tested on: OVCAR-4
[12] = tested on: SR
[13] = tested on: SF-268
[14] = tested on: K562
[15] = tested on: SN12C
[16] = tested on: EKVX
[17] = tested on: HOP-92
[18] = tested on: IGROV-1
[19] = tested on: HL-60
[20] = tested on: 786-0

Row | SMILES | GI50 [1] | GI50 [2] | GI50 [3] | GI50 [4] | GI50 [5] [µM] | GI50 [6] | GI50 [7] | GI50 [8] | GI50 [9] | GI50 [10] | GI50 [11] | GI50 [12] | GI50 [13] | GI50 [14] | GI50 [15] | GI50 [16] | GI50 [17] | GI50 [18] | GI50 [19] | GI50 [20]
1 | CC(SC1=CC(=O)c2c(O)ccc(O)c2C1=O)C(=O)O (stereo not given) | 23.5 µM (inactive) | 32.1 µM (inactive) | > 100 µM (inactive) | > 51.5 µM (inactive) | > 37 | > 47.3 µM (inactive) | > 100 µM (inactive) | > 48.4 µM (inactive) | > 100 µM (inactive) | 21.4 µM (inactive) | 17 µM (inactive) | > 52.8 µM (inactive) | 48 µM (inactive) | 13.8 µM (inactive) | > 48.2 µM (inactive) | > 100 µM (inactive) | > 58.5 µM (inactive) | > 44.9 µM (inactive) | 13.6 µM (inactive) | 23.9 µM (inactive)
2 | CC(CO)(CO)N1C(=O)C2C3C=CC(C3)C2C1=O (stereo not given) | > 100 µM (inactive) | > 100 µM (inactive) | > 100 µM (inactive) | > 100 µM (inactive) | > 100 | > 100 µM (inactive) | > 100 µM (inactive) | 52.1 µM (inactive) | > 100 µM (inactive) | > 100 µM (inactive) | > 100 µM (inactive) | > 100 µM (inactive) | > 100 µM (inactive) | > 100 µM (inactive) | > 100 µM (inactive) | > 100 µM (inactive) | > 100 µM (inactive) | > 100 µM (inactive) | > 100 µM (inactive) | > 100 µM (inactive)
3 | CCn1c(SCC(=O)N/N=C/c2ccccc2)nc2ccccc2c1=O | 16.3 µM (inactive) | 7.16 µM (inactive) | 12.8 µM (inactive) | > 55.1 µM (inactive) | 3.87 | 29.9 µM (inactive) | 18.5 µM (inactive) | 7.19 µM (inactive) | 2.13 µM (inactive) | 10 µM (inactive) | 14.1 µM (inactive) | 0.478 µM (active) | 15.8 µM (inactive) | 1.87 µM (inactive) | 13.1 µM (inactive) | 26.3 µM (inactive) | 26.9 µM (inactive) | 12.9 µM (inactive) | 4.8 µM (inactive) | 7.66 µM (inactive)
4 | COc1ccc2cc(CN3CCC(C4CCN(Cc5ccc6cc(OC)ccc6c5)CC4)CC3)ccc2c1 | 5.15 µM (inactive) | 2.33 µM (inactive) | 6.43 µM (inactive) | 3.25 µM (inactive) | 1.45 | 3.14 µM (inactive) | 3.2 µM (inactive) | 5.16 µM (inactive) | 2.17 µM (inactive) | 3.1 µM (inactive) | 4.42 µM (inactive) | 1.24 µM (inactive) | 3.16 µM (inactive) | 0.455 µM (active) | 8.95 µM (inactive) | 11.9 µM (inactive) | 2.37 µM (inactive) | 8.77 µM (inactive) | 2.33 µM (inactive) | 2.06 µM (inactive)
5 | CC1=C(C(=O)Nc2ccccc2C)C(c2ccc(Cl)c(Cl)c2)C(C(=O)Nc2ccccc2C)=C(C)N1 | 37.2 µM (inactive) | 16.6 µM (inactive) | 28.6 µM (inactive) | 21.7 µM (inactive) | 17.2 | 25.7 µM (inactive) | 44.2 µM (inactive) | 20.1 µM (inactive) | 15.8 µM (inactive) | 17.6 µM (inactive) | 16.4 µM (inactive) | 12.7 µM (inactive) | 20.3 µM (inactive) | 20.3 µM (inactive) | 18.7 µM (inactive) | 34.1 µM (inactive) | 14.4 µM (inactive) | 19 µM (inactive) | 15.1 µM (inactive) | 24.7 µM (inactive)
6 | O=C(NS(=O)(=O)OCC(Cl)(Cl)Cl)SCCC(F)(F)C(F)(F)C(F)(F)C(F)(F)C(F)(F)C(F)(F)F | 51.3 µM (inactive) | 23.1 µM (inactive) | 28.2 µM (inactive) | 29.5 µM (inactive) | 20.9 | 38 µM (inactive) | 17.9 µM (inactive) | 22.5 µM (inactive) | 19.6 µM (inactive) | 24.9 µM (inactive) | 16.4 µM (inactive) | 32.7 µM (inactive) | 40.4 µM (inactive) | 28.6 µM (inactive) | 32.4 µM (inactive) | 18.3 µM (inactive) | 10.4 µM (inactive) | 37.4 µM (inactive) | 23.1 µM (inactive) | 35.6 µM (inactive)
7 | Oc1ccc(-c2nc3ccc4ccccc4c3c3c2CCCC3)c(O)c1 | 13.8 µM (inactive) | 15.2 µM (inactive) | 57.7 µM (inactive) | 37.1 µM (inactive) | 26.5 | 29.9 µM (inactive) | 16.3 µM (inactive) | 34.9 µM (inactive) | 19.6 µM (inactive) | 24.4 µM (inactive) | 66.8 µM (inactive) | 20.2 µM (inactive) | 22.2 µM (inactive) | > 100 µM (inactive) | 17.7 µM (inactive) | 28.8 µM (inactive) | 24.7 µM (inactive) | 4.34 µM (inactive) | 2.55 µM (inactive) | 11.7 µM (inactive)
8 | CCC(Sc1cc(Cl)c(C)cc1S(=O)(=O)Nc1nc(N)nc(N(C)C)n1)C(=O)O (stereo not given) | > 10 µM (inactive) | > 10 µM (inactive) | > 10 µM (inactive) | > 10 µM (inactive) | > 10 | > 10 µM (inactive) | > 10 µM (inactive) | > 10 µM (inactive) | > 10 µM (inactive) | > 10 µM (inactive) | > 10 µM (inactive) | > 10 µM (inactive) | > 10 µM (inactive) | > 10 µM (inactive) | > 10 µM (inactive) | > 10 µM (inactive) | > 10 µM (inactive) | > 10 µM (inactive) | > 10 µM (inactive) | > 10 µM (inactive)
9 | COc1ccc2c(c1)c(=O)c1ccccc1n2/C=C/C(=O)O | > 100 µM (inactive) | > 100 µM (inactive) | > 100 µM (inactive) | > 100 µM (inactive) | > 100 | > 100 µM (inactive) | > 100 µM (inactive) | > 79.4 µM (inactive) | > 100 µM (inactive) | > 100 µM (inactive) | > 100 µM (inactive) | > 41.7 µM (inactive) | > 68.2 µM (inactive) | > 100 µM (inactive) | > 100 µM (inactive) | > 100 µM (inactive) | > 100 µM (inactive) | > 100 µM (inactive) | > 46.8 µM (inactive) | > 100 µM (inactive)
